From patent publication US20040014696A1, “Specificity in treatment of diseases” (priority 2003, published 2004)

Key:
[1] = RBC radioactivity in mice after repeated oral dosing; assay type: in vivo; details: oral 300 mg/kg daily for 8 days; for Medium RBC Radioactivity (Mice): Cmin in RBCs
[2] = RBC radioactivity in portal vein-cannulated cynomolgus monkeys; details: for Medium RBC Radioactivity (Monkeys - multiple doses) / Medium RBC Radioactivity (Monkeys - single dose) / Time to peak radioactivity concentration in RBC: cynomolgus monkeys; for Medium RBC Radioactivity (Monkeys - multiple doses): projected steady state; for Medium RBC Radioactivity (Monkeys - single dose) / Time to peak radioactivity concentration in RBC: single oral dose 30 mg/kg
[3] = Toxicity findings (hemolytic anemia, RBCs) in Rhesus monkeys; details: 60 mg/kg followed by 30 mg/kg*day for 10 days
[4] = Liver radioactivity in mice after repeated oral dosing; assay type: in vivo; details: oral 300 mg/kg daily for 8 days; for Total Liver Radioactivity: Cmin in liver; for Modified Ribavirin in liver: analyte modified Ribavirin
[5] = Spontaneous hydrolysis in Dulbecco's PBS buffer without enzyme; assay type: physicochemical
Procedure: (§1) Adenosine deaminase (ADA) isolated from calf intestine was purchased from Boehringer Mannheim. The assay was performed in Dulbecco's PBS buffer (Na2HPO4, 8 mM; […] KCl, 2.7 mM; NaCl, 138 mM; pH 7.2) at room temperature (23° C.). […] Taking the limit of the UV assay method, the spontaneous hydrolysis of viramidine will be less than 2.5×10^−5 min^−1.

erythrocytes = test: Phosphorylation in erythrocytes; assay type: cell-based
From the text: For example, the selectivity of the pharmacological effect of 1-beta-D-ribofuranosyl-1,2,4-triazole-3-carboxamide (Ribavirin, Structure 1) is increased by covalently coupling an ═NH group to Ribavirin to form a carboxamidine group. Ribavirin is known to have antiviral properties in hepatitis virus-infected hepatocytes (e.g., see review Marcellin, P. and Benhamou J.; Treatment of chronic viral hepatitis, Baillieres Clin Gastroenteol 1994 June; 8(2):233-53). It is also known, that Ribavirin is readily phosphorylated in erythrocytes to the pharmacologically active form Ribavirin-phosphate at a significant rate (e.g., Homma, M. et al. High-performance liquid chromatographic determination of Ribavirin in whole blood to assess disposition in erythrocytes; Antimicrob Agents Chemother 1999 November; 43(11):2716-9), which reduces the selective pharmacological effect.

[6] = Liver radioactivity estimated from portal vs systemic plasma in portal vein-cannulated monkeys; assay type: in vivo
[7] = target: T1, Adenosine deaminase (ADA) (Bos taurus, UniProt P56658); test: In vitro deamination by adenosine deaminase (UV 240 nm, mass spectrum); assay type: biochemical, calf; details: 0.2 mM compound with 0.5 μM ADA overnight, mass spectrum analysis
T1 construct: Adenosine deaminase (ADA) isolated from calf intestine; purchased Boehringer Mannheim; host or cells: calf intestine (tissue-isolated)
T1 sequence (P56658 1-363): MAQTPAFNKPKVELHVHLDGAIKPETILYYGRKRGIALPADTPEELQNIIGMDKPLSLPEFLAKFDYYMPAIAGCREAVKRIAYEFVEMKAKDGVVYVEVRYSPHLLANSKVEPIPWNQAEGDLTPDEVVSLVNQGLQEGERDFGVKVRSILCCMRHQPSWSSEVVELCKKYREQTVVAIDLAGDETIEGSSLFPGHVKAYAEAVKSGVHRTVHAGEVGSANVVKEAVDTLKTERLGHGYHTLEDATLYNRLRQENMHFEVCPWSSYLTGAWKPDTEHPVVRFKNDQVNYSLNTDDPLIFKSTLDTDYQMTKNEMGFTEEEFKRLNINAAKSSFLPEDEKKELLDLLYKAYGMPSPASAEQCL
Procedure: as §1, with “min^−1. […] The enzyme turnover number was estimated about 2.5 min^−1 at the current assay condition.” for “min^−1.”

RBCs = test: In vitro transport into RBCs; assay type: cell-based; details: in vitro studies (data not shown)

| Structure (SMILES) | Medium RBC Radioactivity (Mice) [1] [μg equiv/g] | Medium RBC Radioactivity (Monkeys - multiple doses) ([2]; multiple dosing at 30 mg/kg) | Medium RBC Radioactivity (Monkeys - single dose) [2] | Time to peak radioactivity concentration in RBC [2] [h] | Projected steady-state RBC radioactivity concentrations, comparison ([2]; multiple dosing at 30 mg/kg, Ribavirin compared to modified Ribavirin) | Toxicity findings on RBCs [3] | Total Liver Radioactivity [4] [μg equiv/g] | Radioactivity concentration Cmin in the liver, comparison ([4]; Ribavirin compared to modified Ribavirin) | Modified Ribavirin in liver [4] | Spontaneous hydrolysis rate ([5]; limit of the UV assay method, pH 7.2) | Spontaneous hydrolysis in buffer ([5]; no enzyme, pH 7.2, 1.5 h, 23° C.) | Effect of zinc ion on spontaneous hydrolysis rate ([5]; zinc ion added to the buffer) | Radioactivity concentration Cmin in RBCs, comparison ([1]; modified Ribavirin vs Ribavirin) | Phosphorylation in erythrocytes (erythrocytes) | RBC radioactivity as compared to Ribavirin ([6]; monkeys) [%] | Liver radioactivity concentration, higher than after oral dosing of Ribavirin ([6]; portal vein-cannulated monkeys, oral administration) | Conversion to Ribavirin [7] | Share of liver radioactivity accounted for by modified Ribavirin [4] | RTCA in liver ([4]; analyte RTCA) | Transport into RBCs (RBCs) |
| --- | --- | --- | --- | --- | --- | --- | --- | --- | --- | --- | --- | --- | --- | --- | --- | --- | --- | --- | --- | --- |
| NC(=O)c1ncn([C@@H]2O[C@H](CO)[C@@H](O)[C@H]2O)n1 [Ribavirin, 1-beta-D-ribofuranosyl-1,2,4-triazole-3-carboxamide, reference compound] | 1.36 | ˜5089 μg equiv/g | ˜41 μg equiv/g | 24 | significantly higher | suffered from hemolytic anemia and significant decrease in RBCs | 18.4 | significantly lower | not detected | – | – | – | – | – | – | – | – | – | – | – |
| N=C(N)c1ncn([C@@H]2O[C@H](CO)[C@@H](O)[C@H]2O)n1 [modified Ribavirin, 1-beta-D-ribofuranosyl-1,2,4-triazole-3-carboxamidine] | 0.38 | ˜606 μg equiv/g | ˜17 μg equiv/g | 24 | – | no significant changes in RBCs | 23.8 | – | ˜7.2 μg eguiv/g μg equiv/g | less than 2.5×10^−5 min^−1 | no spontaneous hydrolysis | does not enhance the spontaneous hydrolysis rate | significantly lower | is not, or is only insignificantly phosphorylated in erythrocytes | ~12 | approximately 50% | more than 75% | about 30% | not detected | not directly transported into RBCs |
